Experimental data: the kinase profiling compilation of Christmann-Franck et al. (2016)

What was measured:
Assay in all cases: KINOMEscan competition binding
Conditions in all cases: compound 2.0 µM
MAPK11 (human) = MAPK11 (human) (UniProt Q15759)
ADCK3 (human) = ADCK3 (human) (UniProt Q8NI60)
TXK (human) = TXK (human) (UniProt P42681)
SIK1 (human) = SIK1 (human) (UniProt P57059)
SGK3 (human) = SGK3 (human) (UniProt Q96BR1)
[1] = test system: PIK3CA (human), P42336 [E545K]
MAP4K5 (human) = MAP4K5 (human) (UniProt Q9Y4K4)
CLK2 (human) = CLK2 (human) (UniProt P49760)
MYO3B (human) = MYO3B (human) (UniProt Q8WXR4)
NEK9 (human) = NEK9 (human) (UniProt Q8TD19)
ULK1 (human) = ULK1 (human) (UniProt O75385)
MAPK15 (human) = MAPK15 (human) (UniProt Q8TD08)
STK25 (human) = STK25 (human) (UniProt O00506)
INSRR (human) = INSRR (human) (UniProt P14616)
MKNK2 (human) = MKNK2 (human) (UniProt Q9HBH9)
PRKCH (human) = PRKCH (human) (UniProt P24723)
CDK5 (human) = CDK5 (human) (UniProt Q00535)
BLK (human) = BLK (human) (UniProt P51451)
MAPK3 (human) = MAPK3 (human) (UniProt P27361)
MELK (human) = MELK (human) (UniProt Q14680)
[2] = test system: FLT3 (human), P36888 [K663Q]
ZAP70 (human) = ZAP70 (human) (UniProt P43403)
ZAP70 (human), sequence (P43403 whole entry, looked up): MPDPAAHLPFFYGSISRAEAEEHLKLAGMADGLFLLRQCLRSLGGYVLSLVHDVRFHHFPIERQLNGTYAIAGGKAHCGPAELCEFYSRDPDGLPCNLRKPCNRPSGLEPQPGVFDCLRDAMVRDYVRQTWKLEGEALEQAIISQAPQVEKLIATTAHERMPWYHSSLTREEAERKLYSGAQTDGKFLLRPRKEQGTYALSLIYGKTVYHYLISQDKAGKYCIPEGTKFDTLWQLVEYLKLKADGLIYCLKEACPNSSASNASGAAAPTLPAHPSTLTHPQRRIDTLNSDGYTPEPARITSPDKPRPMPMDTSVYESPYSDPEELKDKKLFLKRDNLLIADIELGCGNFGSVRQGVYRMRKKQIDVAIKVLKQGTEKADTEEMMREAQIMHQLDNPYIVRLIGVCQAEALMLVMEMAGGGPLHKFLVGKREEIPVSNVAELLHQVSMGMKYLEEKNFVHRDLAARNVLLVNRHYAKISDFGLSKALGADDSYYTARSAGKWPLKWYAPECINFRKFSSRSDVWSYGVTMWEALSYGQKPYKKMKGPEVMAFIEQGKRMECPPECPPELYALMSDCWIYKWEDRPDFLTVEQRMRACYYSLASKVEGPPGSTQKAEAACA

DDR2 (human) = DDR2 (human) (UniProt Q16832)
PLK3 (human) = PLK3 (human) (UniProt Q9H4B4)
MAP2K2 (human) = MAP2K2 (human) (UniProt P36507)
STK17A (human) = STK17A (human) (UniProt Q9UEE5)
NEK2 (human) = NEK2 (human) (UniProt P51955)
BMPR2 (human) = BMPR2 (human) (UniProt Q13873)
BMPR2 (human), sequence (Q13873 whole entry, looked up): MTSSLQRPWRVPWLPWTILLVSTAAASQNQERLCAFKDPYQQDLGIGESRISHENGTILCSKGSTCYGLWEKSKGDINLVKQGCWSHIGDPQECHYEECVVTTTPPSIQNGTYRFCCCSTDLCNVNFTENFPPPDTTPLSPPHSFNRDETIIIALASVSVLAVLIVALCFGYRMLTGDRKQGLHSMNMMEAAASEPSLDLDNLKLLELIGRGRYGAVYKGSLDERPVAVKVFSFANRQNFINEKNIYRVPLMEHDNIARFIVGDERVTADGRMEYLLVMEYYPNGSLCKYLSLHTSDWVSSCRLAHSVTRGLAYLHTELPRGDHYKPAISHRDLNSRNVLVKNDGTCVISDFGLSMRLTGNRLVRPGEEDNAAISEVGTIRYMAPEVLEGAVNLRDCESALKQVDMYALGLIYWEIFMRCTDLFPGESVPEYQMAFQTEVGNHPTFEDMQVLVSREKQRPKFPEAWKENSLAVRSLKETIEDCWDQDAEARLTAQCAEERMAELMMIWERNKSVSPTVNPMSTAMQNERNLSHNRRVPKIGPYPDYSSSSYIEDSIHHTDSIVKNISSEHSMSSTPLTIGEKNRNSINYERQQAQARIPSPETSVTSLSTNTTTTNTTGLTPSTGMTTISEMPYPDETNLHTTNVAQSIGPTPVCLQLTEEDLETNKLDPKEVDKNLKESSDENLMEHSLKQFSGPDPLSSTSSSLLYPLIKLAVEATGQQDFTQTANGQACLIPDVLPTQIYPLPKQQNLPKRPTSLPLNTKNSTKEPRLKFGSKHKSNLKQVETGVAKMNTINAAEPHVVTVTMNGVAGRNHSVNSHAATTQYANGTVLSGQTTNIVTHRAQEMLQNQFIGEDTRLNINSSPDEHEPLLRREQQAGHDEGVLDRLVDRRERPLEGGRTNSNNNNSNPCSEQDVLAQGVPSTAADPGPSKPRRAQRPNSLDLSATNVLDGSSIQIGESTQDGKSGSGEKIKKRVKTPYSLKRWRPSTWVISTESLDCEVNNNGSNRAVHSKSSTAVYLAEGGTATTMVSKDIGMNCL

MYLK (human) = MYLK (human) (UniProt Q15746)
DAPK2 (human) = DAPK2 (human) (UniProt Q9UIK4)
CDK4 CCND3 (human) = CDK4 CCND3 (human) (UniProt P11802+P30281)
LRRK2 (human) = LRRK2 (human) (UniProt Q5S007)
MARK4 (human) = MARK4 (human) (UniProt Q96L34)
EPHB2 (human) = EPHB2 (human) (UniProt P29323)
IKBKE (human) = IKBKE (human) (UniProt Q14164)
IKBKE (human), sequence (Q14164 whole entry, looked up): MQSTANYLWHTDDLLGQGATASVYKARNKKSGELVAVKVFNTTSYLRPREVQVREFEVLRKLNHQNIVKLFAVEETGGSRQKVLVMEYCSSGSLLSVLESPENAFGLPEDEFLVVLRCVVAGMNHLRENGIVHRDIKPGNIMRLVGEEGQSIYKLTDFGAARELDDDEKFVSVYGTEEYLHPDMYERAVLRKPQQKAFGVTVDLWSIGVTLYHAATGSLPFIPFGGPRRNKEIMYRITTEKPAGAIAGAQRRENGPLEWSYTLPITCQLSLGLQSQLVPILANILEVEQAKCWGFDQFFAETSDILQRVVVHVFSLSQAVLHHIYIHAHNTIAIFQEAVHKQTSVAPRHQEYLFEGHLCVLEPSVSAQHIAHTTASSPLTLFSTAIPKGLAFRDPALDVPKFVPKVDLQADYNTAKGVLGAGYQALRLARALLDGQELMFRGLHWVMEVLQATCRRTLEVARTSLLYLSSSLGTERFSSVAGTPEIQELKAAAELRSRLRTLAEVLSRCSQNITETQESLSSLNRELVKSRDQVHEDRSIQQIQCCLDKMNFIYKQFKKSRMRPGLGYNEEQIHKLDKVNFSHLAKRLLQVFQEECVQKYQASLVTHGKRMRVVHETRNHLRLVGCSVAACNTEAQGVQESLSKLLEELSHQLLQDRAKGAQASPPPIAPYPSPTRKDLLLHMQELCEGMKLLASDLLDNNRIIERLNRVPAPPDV

INSR (human) = INSR (human) (UniProt P06213)
RPS6KA4 KD1 (human) = RPS6KA4 KD1 (human) (UniProt O75676)
PRKACB (human) = PRKACB (human) (UniProt P22694)
PAK3 (human) = PAK3 (human) (UniProt O75914)
EPHA2 (human) = EPHA2 (human) (UniProt P29317)
EPHA2 (human), sequence (P29317 whole entry, looked up): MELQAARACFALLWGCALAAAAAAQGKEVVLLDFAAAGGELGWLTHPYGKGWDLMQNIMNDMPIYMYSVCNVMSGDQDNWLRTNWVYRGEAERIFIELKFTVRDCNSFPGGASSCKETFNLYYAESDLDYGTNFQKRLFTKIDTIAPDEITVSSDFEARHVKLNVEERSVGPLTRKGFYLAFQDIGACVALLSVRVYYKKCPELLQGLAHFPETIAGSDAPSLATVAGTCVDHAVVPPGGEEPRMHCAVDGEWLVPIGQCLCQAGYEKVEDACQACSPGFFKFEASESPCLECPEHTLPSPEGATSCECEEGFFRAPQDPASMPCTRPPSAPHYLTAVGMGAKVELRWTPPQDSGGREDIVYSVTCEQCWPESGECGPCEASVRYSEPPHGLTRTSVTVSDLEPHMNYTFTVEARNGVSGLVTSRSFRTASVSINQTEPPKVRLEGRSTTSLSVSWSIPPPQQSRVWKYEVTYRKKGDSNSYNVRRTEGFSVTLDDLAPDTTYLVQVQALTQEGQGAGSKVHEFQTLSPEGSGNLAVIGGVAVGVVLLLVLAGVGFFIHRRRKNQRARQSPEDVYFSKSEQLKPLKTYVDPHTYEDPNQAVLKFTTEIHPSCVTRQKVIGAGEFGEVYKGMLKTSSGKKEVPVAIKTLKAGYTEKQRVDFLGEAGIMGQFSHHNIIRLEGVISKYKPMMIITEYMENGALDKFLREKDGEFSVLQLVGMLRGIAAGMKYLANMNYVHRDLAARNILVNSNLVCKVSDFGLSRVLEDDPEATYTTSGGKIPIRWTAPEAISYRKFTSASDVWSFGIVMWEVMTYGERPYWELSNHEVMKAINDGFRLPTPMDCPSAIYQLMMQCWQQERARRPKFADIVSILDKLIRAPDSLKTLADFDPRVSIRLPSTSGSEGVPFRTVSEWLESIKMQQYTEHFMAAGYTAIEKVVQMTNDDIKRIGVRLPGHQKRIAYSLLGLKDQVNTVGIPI

[3] = test system: EGFR (human), P00533 [T790M]
CDK14 (human) = CDK14 (human) (UniProt O94921)
MARK2 (human) = MARK2 (human) (UniProt Q7KZI7)
MARK2 (human), sequence (Q7KZI7 whole entry, looked up): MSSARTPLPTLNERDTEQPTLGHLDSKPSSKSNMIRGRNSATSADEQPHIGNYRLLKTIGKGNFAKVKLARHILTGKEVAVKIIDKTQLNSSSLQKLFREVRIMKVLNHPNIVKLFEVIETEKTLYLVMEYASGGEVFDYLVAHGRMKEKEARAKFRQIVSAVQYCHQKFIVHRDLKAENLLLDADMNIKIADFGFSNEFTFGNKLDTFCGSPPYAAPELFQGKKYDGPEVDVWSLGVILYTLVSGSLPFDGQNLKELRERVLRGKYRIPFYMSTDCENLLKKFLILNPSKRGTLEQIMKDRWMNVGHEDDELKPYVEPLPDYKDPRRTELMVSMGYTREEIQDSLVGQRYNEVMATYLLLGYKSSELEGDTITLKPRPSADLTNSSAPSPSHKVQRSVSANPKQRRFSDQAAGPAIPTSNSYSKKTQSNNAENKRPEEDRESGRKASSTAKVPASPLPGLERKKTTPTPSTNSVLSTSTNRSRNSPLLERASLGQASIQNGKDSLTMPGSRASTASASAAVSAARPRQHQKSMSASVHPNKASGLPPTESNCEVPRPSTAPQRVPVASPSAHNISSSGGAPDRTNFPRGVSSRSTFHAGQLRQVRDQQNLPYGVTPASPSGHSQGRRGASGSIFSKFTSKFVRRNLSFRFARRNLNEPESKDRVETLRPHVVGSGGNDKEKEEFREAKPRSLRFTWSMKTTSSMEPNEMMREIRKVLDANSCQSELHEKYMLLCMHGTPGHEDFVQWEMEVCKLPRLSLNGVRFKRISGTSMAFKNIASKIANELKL

SIK1 (human), sequence (P57059 whole entry, looked up): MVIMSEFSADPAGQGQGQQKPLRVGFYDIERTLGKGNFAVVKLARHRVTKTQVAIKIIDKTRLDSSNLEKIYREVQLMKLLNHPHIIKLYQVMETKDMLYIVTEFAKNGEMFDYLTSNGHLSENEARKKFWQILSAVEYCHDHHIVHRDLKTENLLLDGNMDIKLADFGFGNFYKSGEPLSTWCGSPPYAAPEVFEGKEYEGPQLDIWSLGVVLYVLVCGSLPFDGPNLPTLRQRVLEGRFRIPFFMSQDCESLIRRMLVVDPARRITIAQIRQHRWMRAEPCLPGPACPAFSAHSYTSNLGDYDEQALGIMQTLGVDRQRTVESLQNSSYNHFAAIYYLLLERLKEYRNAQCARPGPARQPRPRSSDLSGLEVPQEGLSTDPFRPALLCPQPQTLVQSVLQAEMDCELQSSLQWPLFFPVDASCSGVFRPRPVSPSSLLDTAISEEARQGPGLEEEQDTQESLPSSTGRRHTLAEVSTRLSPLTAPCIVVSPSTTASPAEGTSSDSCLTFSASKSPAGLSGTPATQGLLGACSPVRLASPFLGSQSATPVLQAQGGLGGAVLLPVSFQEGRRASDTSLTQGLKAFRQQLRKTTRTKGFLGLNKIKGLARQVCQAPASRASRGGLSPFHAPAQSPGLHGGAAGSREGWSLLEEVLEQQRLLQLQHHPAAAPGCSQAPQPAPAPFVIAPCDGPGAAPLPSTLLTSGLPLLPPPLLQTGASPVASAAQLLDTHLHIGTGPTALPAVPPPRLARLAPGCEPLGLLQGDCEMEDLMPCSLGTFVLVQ

Structure (SMILES): N#Cc1ccc2ncnc(NCCc3ccc4ccccc4c3)c2c1
- kinase still bound, per cent of control (MAPK11 (human)): 100%
- kinase still bound, per cent of control (ADCK3 (human)): 100%
- kinase still bound, per cent of control (TXK (human)): 94%
- kinase still bound, per cent of control (SIK1 (human)): 100%
- kinase still bound, per cent of control (SGK3 (human)): 100%
- kinase still bound, per cent of control [1]: 94%
- kinase still bound, per cent of control (MAP4K5 (human)): 95%
- kinase still bound, per cent of control (CLK2 (human)): 74%
- kinase still bound, per cent of control (MYO3B (human)): 96%
- kinase still bound, per cent of control (NEK9 (human)): 100%
- kinase still bound, per cent of control (ULK1 (human)): 100%
- kinase still bound, per cent of control (MAPK15 (human)): 84%
- kinase still bound, per cent of control (STK25 (human)): 100%
- kinase still bound, per cent of control (INSRR (human)): 97%
- kinase still bound, per cent of control (MKNK2 (human)): 98%
- kinase still bound, per cent of control (PRKCH (human)): 100%
- kinase still bound, per cent of control (CDK5 (human)): 100%
- kinase still bound, per cent of control (BLK (human)): 65%
- kinase still bound, per cent of control (MAPK3 (human)): 95%
- kinase still bound, per cent of control (MELK (human)): 84%
- kinase still bound, per cent of control [2]: 98%
- kinase still bound, per cent of control (ZAP70 (human)): 94%
- kinase still bound, per cent of control (DDR2 (human)): 100%
- kinase still bound, per cent of control (PLK3 (human)): 80%
- kinase still bound, per cent of control (MAP2K2 (human)): 80%
- kinase still bound, per cent of control (STK17A (human)): 100%
- kinase still bound, per cent of control (NEK2 (human)): 100%
- kinase still bound, per cent of control (BMPR2 (human)): 100%
- kinase still bound, per cent of control (MYLK (human)): 100%
- kinase still bound, per cent of control (DAPK2 (human)): 87%
- kinase still bound, per cent of control (CDK4 CCND3 (human)): 100%
- kinase still bound, per cent of control (LRRK2 (human)): 85%
- kinase still bound, per cent of control (MARK4 (human)): 85%
- kinase still bound, per cent of control (EPHB2 (human)): 99%
- kinase still bound, per cent of control (IKBKE (human)): 100%
- kinase still bound, per cent of control (INSR (human)): 100%
- kinase still bound, per cent of control (RPS6KA4 KD1 (human)): 83%
- kinase still bound, per cent of control (PRKACB (human)): 100%
- kinase still bound, per cent of control (PAK3 (human)): 100%
- kinase still bound, per cent of control (EPHA2 (human)): 100%
- kinase still bound, per cent of control [3]: 100%
- kinase still bound, per cent of control (CDK14 (human)): 100%
- kinase still bound, per cent of control (MARK2 (human)): 94%
